Reference: patent publication US20240318134A1, “IN VITRO GENERATION OF ORGANIZED 3D CELL STRUCTURES INCLUDING HEAD-TRUNK EMBRYO-LIKE STRUCTURES, USING EPIGENETIC REMODELING FACTORS-MICROFLUIDIC PLATFORM SUITABLE FOR THEIR GENERATION” (INSTITUT PASTEUR, priority 2021, published 2024)

Columns and labels:
[1] = tested on: global level of SUMOylation in mouse ESCs; assay: Immunoblots of SUMO1 and SUMO2/3 conjugates in treated ESCs; type: cell-based; conditions: D3 and D10, after first and second 48 h treatment; restored at D8 after withdrawal
Protocol: Cells were collected and directly lysed in Laemmli buffer (Bio-Rad #161-0747). Proteins were quantified using Pierce 660 nm Protein Assay (ThermoFisher Scientific #22662) according to manufacturer's instructions. Equal amounts of proteins were loaded on gels and good equilibration of the different samples was assessed by Ponceau staining after membrane transfer. Antibodies against SUMO1 (1:1000, Abcam #ab32058), Actin (1:4000, Sigma #A1978), SUMO2/3 (1:1000, Abcam #ab81371), Gapdh (1:1000, Cell Signaling #2118), Dnmt1 (1:1000, Abcam #ab13537), Dnmt3a (1:1000, Abcam #ab2850), Dnmt3b (1:1000, Abcam #ab2851), Tet2 (1:1000, Cell Signaling #36449S), Histone H3 (1:5000, Abcam #ab24834) were used according to standard protocols and suppliers' recommendations.

[2] = tested on: whole genome methylated CG fraction; assay: Genome-wide DNA methylation profiling (Methyl-seq) during the hypoSUMOylation protocol; type: cell-based, mouse; conditions: D1 to D10 of the hypoSUMOylation protocol
Protocol: DNA was extracted and purified from 2 million cells for each condition with the Quick-DNA Midiprep Plus Kit (Zymo Research D4075) following manufacturer's instructions. DNA was quantified with a NanoDrop ND-1000 (ThermoFisher Scientific). The NEBNext Enzymatic Methyl-seq Kit (New England Biolabs #E7120S) was used to prepare libraries for detection of 5-mC and 5-hmC. 200 ng of DNA from each sample were sheared to 275 bp fragments with an E220 Focused-ultrasonicator (Covaris) with the following settings: Duty Factor, 10%—Peak Incident Power, 175 W—Cycles per burst, 200—Duration, 100 sec. Fragment size was validated by a 4200 TapeStation System (Agilent Technologies). The NEBNext Enzymatic Methyl-seq Kit workflow was then followed, using the sodium hydroxide option for the denaturation step. The size distribution and concentration of the libraries was determined by TapeStation. The libraries were sequenced on an Illumina HiSeq4000 sequencer as paired-end 100 base reads following Illumina's instructions. […]
Methyl-seq data were processed with the Bismark pipeline^62 using bowtie2 aligner^64 with the default parameters. Biological triplicates were merged and CG sites with at least 5 reads were kept for downstream analyses. Methylated and unmethylated CG sites were counted within predetermined windows (bin or interval) and a binomial test was used to compare different timepoints or regions. […]

[3] = tested on: Dnmt3a; assay: Dnmt3a gene expression upon ML-792 treatment (siSall4 experiment); type: cell-based, mouse; conditions: ML-792 treatment for 48 h; induction reduced by Sall4 knockdown
Protocol: (§1) cDNA was generated with a High-Capacity cDNA Reverse Transcription Kit (Applied Biosystems #4368814) from 500 ng to […] of total RNA purified by Trizol extraction. Quantitative real-time PCR analysis was performed with SYBR Green PCR master mix (Applied Biosystems #4309155) and the primer sets indicated in Supplementary Table 7 using cDNA or genomic DNA (local ChIP). Quantitative real-time PCR analysis was performed on a CFX96 Touch Real-Time PCR Detection System (Bio-Rad) or a QuantStudio 6 Flex Real-Time PCR System (Applied Biosystems).

[4] = tested on: mouse ESCs (ES R1 cells); assay: Generating adherent spheroids from mouse ESCs by two 48 h rounds of SUMO E1 inhibitor followed by medium switch; type: cell-based; conditions: two rounds of 48 h treatment in serum+Lif, then switch to N2B27+Lif; ML-792 2.5 μM, TAK-981 0.1 μM
Protocol: • Using ML-792 as hypoSUMOylation agent (SUMO E1 enzyme inhibitor): ESCs (ES R1 cells-129X1×129S1—ATCC) were dissociated with Trypsin-EDTA and plated (2.5 million cells in 100 mm dish) in serum+Lif medium supplemented with 2.5 μM ML-792 (Takeda Pharmaceuticals International Co.). Medium was replaced the next day to refresh treatment. After 48 h of treatment, plates were rinsed twice with PBS then cells were allowed to recover in serum+Lif. 5 days after the end of the first round, cells were similarly counted and plated for a 2nd round of ML-792. After 48 h of treatment, plates were rinsed twice with PBS then cells were allowed to recover in N2B27+Lif medium. […] By contrast the following specific parameters are taken into consideration with TAK-981:
On Day 1: first round. 500 000 ES R1 cells were plated per well well of a gelatin-coated 6-well plate in 2 ml of serum+Lif medium, supplemented with 0.1 μM of TAK-981. On Day 2, medium was replaced (aspirated) to refresh treatment (2 mL of Serum+Lif medium, supplemented with 0.1 μM of TAK-981 were added). After 48 h of treatment, on Day 3, the medium was aspirated and wells were rinsed twice with PBS then cells were allowed to recover in 2 ml of added serum+Lif. 6 days after the end of the first round, cells were similarly counted and plated for a 2nd round of TAK-981 (for example starting on Day 9 from the start of first round). […]

[5] = tested on: Nanog; assay: Nanog expression at D8 after a round of hypoSUMOylation followed by 5-azacytidine treatment; type: cell-based, mouse; conditions: 0.1 μM for 5 days after the first wave of hypoSUMOylation
[6] = tested on: mouse ESC-derived spheroids; assay: Marker expression and cell types of spheroids prepared with SUMO E1 inhibitor; type: cell-based; conditions: spheroids prepared with TAK-981; same as with ML-792
Protocol: On Day 1: first round. 500 000 ES R1 cells were plated per well well of a gelatin-coated 6-well plate in 2 ml of serum+Lif medium, supplemented with 0.1 μM of TAK-981. On Day 2, medium was replaced (aspirated) to refresh treatment (2 mL of Serum+Lif medium, supplemented with 0.1 μM of TAK-981 were added). After 48 h of treatment, on Day 3, the medium was aspirated and wells were rinsed twice with PBS then cells were allowed to recover in 2 ml of added serum+Lif. 6 days after the end of the first round, cells were similarly counted and plated for a 2nd round of TAK-981 (for example starting on Day 9 from the start of first round). On Day 9, 500 000 ES R1 cells were seeded per well on a gelatin-coated 6-well plate in 2 mL of Serum+Lif medium, supplemented with 0.1 μM of TAK-981 On day 10, the medium was aspirated and 2 ml of serum+Lif medium were added, supplemented with 0.1 μM of TAK-981 After 48 h of treatment (on Day 11), the medium was aspirated and wells were rinsed twice with PBS then cells were allowed to recover in 2 ml of N2B27+Lif medium that were added. Culture was carried out in N2B27+Lif medium.
as §1

SMILES: NS(=O)(=O)OC[C@H]1C[C@@H](Nc2ncncc2C(=O)c2ccn(Cc3cccc(Br)c3)n2)C[C@@H]1O [ML-792]
- level of SUMO conjugates (SUMO1, SUMO2/3 immunoblot) [1]: drop of SUMO conjugates at day 3 (D3) and D10
- whole genome methylated CG fraction [2]: gradual increase of the methylated CG fraction from D1 to D10
- Dnmt3a expression [3]: induction of Dnmt3a
- formation of spheroid structures [4]: yielded large spheroid structures on adherent plates

SMILES: Nc1ncn([C@@H]2O[C@H](CO)[C@@H](O)[C@H]2O)c(=O)n1 [5-azacytidine]
- Nanog expression at D8 [5]: able to maintain a high level of Nanog

SMILES: Cc1sc(C(=O)c2cncnc2NC2C[C@H](COS(N)(=O)=O)[C@@H](C)C2)cc1[C@@H]1NCCc2ccc(Cl)cc21 (stereo partly shown) [TAK-981]
- emergence of EPI-L cell type [6]: Emergence of an EPI-L cell type expressing Pou3f1, Fgt5, Wnt3
- emergence of ESC-L cell type [6]: Emergence of an ESC-L cell type expressing Dppa3
- emergence of XEN-L cell type [6]: Emergence of a XEN-L cell type expressing Sox17, Gata4, Snail
- pluripotency marker expression in spheroids [6]: Decrease of pluripotency markers Nanog, Essrb
- formation of spheroid structures [4]: cells form three-dimensional adherent spheroids
